Reference: ChEMBL document CHEMBL4196217, “Structure-Based Drug Design and Identification of H2O-Soluble and Low Toxic Hexacyclic Camptothecin Derivatives with Improved Efficacy in Cancer and Lethal Inflammation Models in Vivo” (J Med Chem, 2018)
Calls of active or inactive are those of the source. The calls are words filed in the database; no cut-off is given here.

How the values were obtained:
HepG2 [1] = experiment: Antitumor activity against human HepG2 cells xenografted in Balb/C mouse assessed as inhibition of tumor growth at dosed intravenously once per week for 30 days followed by 2 weeks observation; format: functional, organism-based
[2] = molecular target: T1, DNA topoisomerase 1 (Homo sapiens) (UniProt P11387); experiment: Inhibition of human recombinant topoisomerase-1 activity at 50 uM using supercoiled pHOT-1 DNA incubated for 30 mins by ethidium bromide free agarose gel elctrophoresis method
T1 sequence (whole entry): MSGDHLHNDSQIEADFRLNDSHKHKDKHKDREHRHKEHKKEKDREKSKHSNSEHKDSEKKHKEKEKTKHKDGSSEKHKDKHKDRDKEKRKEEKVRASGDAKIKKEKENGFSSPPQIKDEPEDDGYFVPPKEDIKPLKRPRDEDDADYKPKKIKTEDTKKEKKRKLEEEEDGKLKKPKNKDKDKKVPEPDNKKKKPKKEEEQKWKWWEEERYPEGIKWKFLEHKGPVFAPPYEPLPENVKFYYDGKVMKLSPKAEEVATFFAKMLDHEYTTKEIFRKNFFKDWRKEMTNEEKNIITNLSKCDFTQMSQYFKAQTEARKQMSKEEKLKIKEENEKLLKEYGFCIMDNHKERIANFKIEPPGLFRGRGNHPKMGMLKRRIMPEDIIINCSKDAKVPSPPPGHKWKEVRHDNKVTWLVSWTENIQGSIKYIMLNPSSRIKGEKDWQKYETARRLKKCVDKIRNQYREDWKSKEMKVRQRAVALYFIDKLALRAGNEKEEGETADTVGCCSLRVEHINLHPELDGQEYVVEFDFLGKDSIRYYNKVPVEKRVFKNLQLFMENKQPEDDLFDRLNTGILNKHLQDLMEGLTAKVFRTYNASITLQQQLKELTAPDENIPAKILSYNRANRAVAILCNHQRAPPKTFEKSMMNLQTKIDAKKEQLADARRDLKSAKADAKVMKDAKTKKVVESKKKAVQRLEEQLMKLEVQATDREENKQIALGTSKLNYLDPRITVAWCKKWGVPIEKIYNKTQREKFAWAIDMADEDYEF

[3] = molecular target: T1, DNA topoisomerase 1 (Homo sapiens); experiment: Inhibition of human recombinant topoisomerase-1 activity at 100 uM using supercoiled pHOT-1 DNA incubated for 30 mins by ethidium bromide free agarose gel elctrophoresis method
[4] = molecular target: T1, DNA topoisomerase 1 (Homo sapiens); experiment: Inhibition of human recombinant topoisomerase-1-mediated DNA cleavage in at 50 uM using supercoiled pHOT-1 DNA incubated for 30 mins by ethidium bromide staining based agarose gel elctrophoresis method
[5] = molecular target: T1, DNA topoisomerase 1 (Homo sapiens); experiment: Inhibition of human recombinant topoisomerase-1-mediated DNA cleavage in at 100 uM using supercoiled pHOT-1 DNA incubated for 30 mins by ethidium bromide staining based agarose gel elctrophoresis method
Mus musculus [6] = experiment: Reduction in IL6 level in C57BL/6 mouse model of LPS-induced sepsis at 10 mg/kg, po dosed 0.5 hrs before LPS injection followed by 10 mg/kg, po dosing at 1 hr, 4 hrs, and 8 hrs after LPS treatment; format: functional, organism-based
Mus musculus [7] = experiment: Reduction in IL6 level in C57BL/6 mouse model of LPS-induced sepsis at 10 mg/kg, po dosed 0.5 hrs before LPS injection followed by 20 mg/kg, po dosing at 1 hr, 4 hrs, and 8 hrs after LPS treatment; format: functional, organism-based
MDA-MB-231 = experiment: Cytotoxicity in human MDA-MB-231 cells assessed as reduction in cell viability incubated for 48 hrs by MTT assay; format: functional, cell-based; conditions: MDA-MB-231, 48 h
HepG2 [8] = experiment: Cytotoxicity in human HepG2 cells assessed as reduction in cell viability incubated for 48 hrs by MTT assay; format: functional, cell-based; conditions: HepG2, 48 h
KB = experiment: Cytotoxicity in human KB cells assessed as reduction in cell viability incubated for 48 hrs by MTT assay; format: functional, cell-based
Bel-7402 = experiment: Cytotoxicity in human Bel7402 cells assessed as reduction in cell viability incubated for 48 hrs by MTT assay; format: functional, cell-based; conditions: Bel-7402, 48 h
SMMC-7721 = experiment: Cytotoxicity in human SMMC7721 cells assessed as reduction in cell viability incubated for 48 hrs by MTT assay; format: functional, cell-based; conditions: SMMC-7721, 48 h
MGC-803 = experiment: Cytotoxicity in human MGC803 cells assessed as reduction in cell viability incubated for 48 hrs by MTT assay; format: functional, cell-based; conditions: MGC-803, 48 h
SK-N-SH = experiment: Cytotoxicity in human SK-N-SH cells assessed as reduction in cell viability incubated for 48 hrs by MTT assay; format: functional, cell-based
QGY-7703 = experiment: Cytotoxicity in human QGY7703 cells assessed as reduction in cell viability incubated for 48 hrs by MTT assay; format: functional, cell-based; conditions: QGY-7703, 48 h
SGC-7901 = experiment: Cytotoxicity in human SGC7901 cells assessed as reduction in cell viability incubated for 48 hrs by MTT assay; format: functional, cell-based; conditions: SGC-7901, 48 h
A549 = experiment: cells; conditions: Homo sapiens, A549, 48 h
Description: Cytotoxicity in human A549 cells assessed as reduction in cell viability incubated for 48 hrs by MTT assay

MCF7 = experiment: cells; conditions: Homo sapiens, MCF7, 48 h
Description: Cytotoxicity in human MCF7 cells assessed as reduction in cell viability incubated for 48 hrs by MTT assay

[9] = Aqueous solubility of the compound; format: physicochemical; conditions: buffer
Mus musculus [10] = experiment: Toxicity in Balb/C mouse administered as single dose measured daily for up to 28 days; format: organism-based; conditions: in vivo, 672 h
Mus musculus [11] = experiment: Toxicity in Balb/C mouse administered as daily dose for 1 week measured daily for up to 28 days; format: organism-based; conditions: in vivo
Mus musculus [12] = experiment: Reduction in IL6 level in C57BL/6 mouse model of LPS-induced sepsis at 2 mg/kg, iv dosed 0.5 hrs before LPS injection followed by 2 mg/kg, iv dosing at 1 hr, 4 hrs, and 8 hrs after LPS treatment; format: functional, organism-based
Mus musculus [13] = experiment: Reduction in IL6 level in C57BL/6 mouse model of LPS-induced sepsis at 4 mg/kg, iv dosed 0.5 hrs before LPS injection followed by 4 mg/kg, iv dosing at 1 hr, 4 hrs, and 8 hrs after LPS treatment; format: functional, organism-based
Mus musculus [14] = experiment: Reduction in IL6 level in C57BL/6 mouse model of LPS-induced sepsis at 4 mg/kg, po dosed 0.5 hrs before LPS injection followed by 4 mg/kg, po dosing at 1 hr, 4 hrs, and 8 hrs after LPS treatment; format: functional, organism-based
Mus musculus [15] = experiment: Reduction in IL6 level in C57BL/6 mouse model of LPS-induced sepsis at 8 mg/kg, po dosed 0.5 hrs before LPS injection followed by 8 mg/kg, po dosing at 1 hr, 4 hrs, and 8 hrs after LPS treatment; format: functional, organism-based

Compound	IC50 (MDA-MB-231)	IC50 (HepG2 [8])	IC50 (KB)	IC50 (Bel-7402)	IC50 (SMMC-7721)	IC50 (MGC-803)	IC50 (QGY-7703)	IC50 (SGC-7901)	IC50 (A549)	IC50 (MCF7)	further results
CC[C@@]1(OC(=O)CNC(=O)CCC(=O)O)C(=O)OCc2c1cc1n(c2=O)Cc2cc3c(ccc4oc(C(C)C)nc43)nc2-1											TGI (HepG2 [1]): Dose-dependent effect; inhibition [2]: Active; inhibition [3]: Active; inhibition [4]: Active; inhibition [5]: Active; Activity (Mus musculus [6]): Active; Activity (Mus musculus [7]): Active
CC[C@@]1(OC(=O)CNC(=O)CCC(=O)O)C(=O)OCc2c1cc1n(c2=O)Cc2cc3c(ccc4oncc43)nc2-1	641 nM	348 nM	7140 nM	2020 nM	> 10000 nM	275 nM	> 10000 nM	> 10000 nM	1830 nM	> 10000 nM	IC50 (SK-N-SH): 549 nM
CC[C@@]1(O)C(=O)OCc2c1cc1n(c2=O)Cc2cc3c(ccc4oc(-c5ccccn5)nc43)nc2-1	2000 nM	71 nM	2040 nM	1930 nM	> 10000 nM	54 nM	> 10000 nM	> 10000 nM	1500 nM	6440 nM	
CC[C@@]1(O)C(=O)OCc2c1cc1n(c2=O)Cc2cc3c(ccc4oc(CC(C)C)nc43)nc2-1	2140 nM	79 nM	2200 nM	2140 nM	11000 nM	90 nM	> 10000 nM	> 10000 nM	3370 nM	7860 nM	
CC[C@@]1(O)C(=O)OCc2c1cc1n(c2=O)Cc2cc3c(ccc4ocnc43)nc2-1	1540 nM	180 nM	2570 nM	2440 nM	3080 nM	231 nM	11600 nM	> 10000 nM	2060 nM	2310 nM	
CC[C@@]1(OC(=O)CNC(=O)CCC(=O)[O-])C(=O)OCc2c1cc1n(c2=O)Cc2cc3c(ccc4oc(C(C)C)nc43)nc2-1.[Na+]											solubility [9]: 5070 µg/mL; MTD (Mus musculus [10]): 60 mg/kg; MTD (Mus musculus [11]): 30 mg/kg
CC[C@@]1(O)C(=O)OCc2c1cc1n(c2=O)Cc2cc3c(ccc4oncc43)nc2-1	488 nM	64 nM	3340 nM	10500 nM	> 10000 nM	514 nM	> 10000 nM	> 10000 nM	1030 nM	1160 nM	IC50 (SK-N-SH): 463 nM
CCCCc1nc2c(ccc3nc4c(cc32)Cn2c-4cc3c(c2=O)COC(=O)[C@]3(O)CC)o1	562 nM	63 nM	2250 nM	2020 nM	> 10000 nM	85 nM	> 10000 nM	> 10000 nM	1120 nM	2140 nM	
CC[C@@]1(OC(=O)CNC(=O)CCC(=O)O)C(=O)OCc2c1cc1n(c2=O)Cc2cc3c4c(ccc3nc2-1)OC(C(C)C)NC4=O (some centres undefined)											TGI (HepG2 [1]): Dose-dependent effect; inhibition [2]: inactive; inhibition [3]: inactive; inhibition [4]: inactive; Activity (Mus musculus [12]): Active; Activity (Mus musculus [13]): Active; Activity (Mus musculus [14]): Active; Activity (Mus musculus [15]): Active
CC[C@@]1(OC(=O)CNC(=O)CCC(=O)[O-])C(=O)OCc2c1cc1n(c2=O)Cc2cc3c4c(ccc3nc2-1)OC(C(C)C)NC4=O.[Na+] (some centres undefined)											solubility [9]: 3400 µg/mL; MTD (Mus musculus [10]): 16 mg/kg; MTD (Mus musculus [11]): 10 mg/kg
CC[C@@]1(OC(=O)CNC(=O)CCC(=O)O)C(=O)OCc2c1cc1n(c2=O)Cc2cc3c(ccc4ocnc43)nc2-1	348 nM	55 nM	916 nM	275 nM	> 10000 nM	64 nM	> 10000 nM	> 10000 nM	92 nM	> 10000 nM	IC50 (SK-N-SH): 348 nM
